Reference: US20190315823A1, “SMALL CATIONIC ANTI-BIOFILM AND IDR PEPTIDES” (priority 2013, published 2019)
Read-outs that look alike come from different tables or passages of the source. Marks after values point to notes of the source that are not given here. Peptide text beside a SMILES is read from it.

Legend:
Assay type in all cases: cell-based
[1] = test system: LPS-stimulated human peripheral blood mononuclear cells (IL1-β); conditions: Table 12A, cells stimulated with 10 ng/ml LPS; for Fold change in IL1β relative to no peptide LPS stimulated cells: 1002-2013 compared to LPS control of 889 pg/ml; for IL1β Production / IL1β Production (pg/ml): LPS alone 984 pg/ml, starred values (1002-2013) determined separately, LPS alone 889 pg/ml
[2] = test system: human peripheral blood mononuclear cells (MCP-1); experiment: SPOT-synthesized derivative screen: production of chemokine MCP-1; conditions: Table 12A, No LPS; for MCP1: background subtracted (21.3 pg/ml)
Summary of the method: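 PBMC from heparinized healthy-donor venous blood, Ficoll-separated, cultured at 0.75 to 1×10^6 cells/ml, 37 °C, 5% CO2, under the treatment regimens. MCP-1 in cell-free supernatants measured by capture ELISA.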

[3] = test system: P. aeruginosa biofilm
Description: (§1) Methods of assessment of anti-biofilm activity—Biofilm formation was initially analyzed using a static abiotic solid surface assay as described elsewhere (de la Fuente-Nunez et al., 2012). […] Planktonic cells were removed, biofilm cells adhering to the side of the tubes were stained with crystal violet, and absorbance at 595 nm was measured using a microtiter plate reader (Bio-Tek Instruments Inc., United States). Some peptides were screened against two Gram negative organisms, P. aeruginosa and K. pneumoniae using a Bioflux apparatus (AutoMate Scientific, Berkeley, Calif.; http://www.autom8.com/bioflux_biofilm.html), which allows for the high-throughput, real-time analysis of biofilms.

[4] = test system: S. aureus biofilm
Description: as §1

[5] = test system: Pseudomonas aeruginosa (Pa) biofilm; experiment: static abiotic solid surface (microtiter, crystal violet) / Bioflux biofilm inhibition screen; conditions: statement referring to Table 2
Description: FIG. 1. Identification of new anti-biofilm peptides active against P. aeruginosa using the microtiter plate screening method with crystal violet staining. […] As a control peptide 1037 was utilized [de la Fuente Nunez et al. 2011].
Methods of assessment of anti-biofilm activity—Biofilm formation was initially analyzed using a static abiotic solid surface assay as described elsewhere (de la Fuente-Nunez et al., 2012). Dilutions (1/100) of overnight cultures were incubated in BM2 biofilm-adjusted medium [62 mM potassium phosphate buffer (pH 7), 7 mM (NH4)2SO4, 2 mM MgSO4, 10 μM FeSO4, 0.4% (wt/vol) glucose, 0.5% (wt/vol) Casamino Acids], or a nutrient medium such as Luria Broth, in polypropylene microtiter plates (Falcon, United States) in the absence (control) or presence of peptide. Peptide was added at time zero (prior to adding the diluted, overnight cultures) in varying concentrations, and the decrease in biofilm formation was recorded at 22-46 h for most bacteria. Planktonic cells were removed, biofilm cells adhering to the side of the tubes were stained with crystal violet, and absorbance at 595 nm was measured using a microtiter plate reader (Bio-Tek Instruments Inc., United States). Some peptides were screened against two Gram negative organisms, P. aeruginosa and K. pneumoniae using a Bioflux apparatus (AutoMate Scientific, Berkeley, Calif.; http://www.autom8.com/bioflux_biofilm.html), which allows for the high-throughput, real-time analysis of biofilms.

[6] = concentration that reduced biofilm growth by 50%

SMILES | Fold change in IL1β relative to no peptide LPS stimulated cells [1] | IL1β Production [1] | Fold increase in MCP1 cf. untreated cells [2] | MCP1 [2] | MBIC50 P. aeruginosa [3, 6] | MBIC50 S. aureus [4, 6] | MBIC50 P. aeruginosa ([3]; biofilm) | MBIC50 S. aureus ([4]; biofilm) | IL1β Production (pg/ml) [1] | activity vs. biofilms [5]
CC[C@H](C)[C@H](NC(=O)[C@H](CCCNC(=N)N)NC(=O)[C@@H](NC(=O)[C@H](CCCNC(=N)N)NC(=O)[C@@H](NC(=O)[C@@H](NC(=O)[C@H](CC(C)C)NC(=O)[C@H](CCCNC(=N)N)NC(=O)[C@@H](N)C(C)C)[C@@H](C)CC)C(C)C)C(C)C)C(=O)N[C@@H](Cc1c[nH]c2ccccc12)C(=O)N[C@@H](CCCNC(=N)N)C(=O)N[C@@H](CCCNC(=N)N)C(N)=O [Peptide 2005] (H-VRLIVRVRIWRR-NH2; N-terminus assumed) | 0.10 | 101 pg/mL | 837 | 17826 pg/mL | 2.5 µg/mL | 10 µg/mL | – | – | – | –
CC[C@H](C)[C@H](NC(=O)[C@H](CCCNC(=N)N)NC(=O)[C@@H](NC(=O)[C@H](CCCCN)NC(=O)[C@@H](NC(=O)[C@@H](NC(=O)[C@H](Cc1c[nH]c2ccccc12)NC(=O)[C@H](CCCNC(=N)N)NC(=O)[C@@H](N)CCCNC(=N)N)[C@@H](C)CC)C(C)C)C(C)C)C(=O)N[C@@H](CCCNC(=N)N)C(=O)N[C@@H](CCCNC(=N)N)C(=O)N[C@@H](CCCNC(=N)N)C(N)=O [Peptide 2008] (H-RRWIVKVRIRRR-NH2; N-terminus assumed) | 0.25 | 250 pg/mL | 2146 | 45524 pg/mL | – | – | 10 µg/mL | 10 µg/mL | – | –
CC[C@H](C)[C@H](NC(=O)[C@@H](NC(=O)[C@H](CCCCN)NC(=O)[C@@H](NC(=O)[C@H](CCCNC(=N)N)NC(=O)[C@H](CCCNC(=N)N)NC(=O)[C@@H](NC(=O)[C@H](CCCNC(=N)N)NC(=O)[C@H](CCC(N)=O)NC(=O)[C@@H](N)Cc1c[nH]c2ccccc12)C(C)C)C(C)C)C(C)C)C(=O)N[C@@H](CCCNC(=N)N)C(=O)N[C@@H](CCCCN)C(N)=O [Peptide 2013] (H-WQRVRRVKVIRK-NH2; N-terminus assumed) | 0.93 | – | 31 | 645 pg/mL | – | – | 20 µg/mL | >80 µg/mL | 830* pg/ml | –
CC[C@H](C)[C@H](NC(=O)[C@H](CCCNC(=N)N)NC(=O)[C@@H](NC(=O)[C@H](CCCCN)NC(=O)[C@@H](NC(=O)[C@@H](NC(=O)[C@@H](NC(=O)[C@H](CCCNC(=N)N)NC(=O)[C@@H](N)C(C)C)C(C)C)[C@@H](C)CC)C(C)C)C(C)C)C(=O)N[C@@H](CCCNC(=N)N)C(=O)N[C@@H](CCCNC(=N)N)C(=O)N[C@@H](CCCNC(=N)N)C(N)=O [Peptide 2004] (H-VRVIVKVRIRRR-NH2; N-terminus assumed) | 0.56 | 549 pg/mL | 340 | 7226 pg/mL | 2.5 µg/mL | 20 µg/mL | – | – | – | –
N=C(N)NCCC[C@H](NC(=O)[C@H](CCCNC(=N)N)NC(=O)[C@H](Cc1c[nH]c2ccccc12)NC(=O)[C@H](Cc1c[nH]c2ccccc12)NC(=O)[C@H](CCCCN)NC(=O)[C@H](Cc1c[nH]c2ccccc12)NC(=O)[C@H](Cc1c[nH]c2ccccc12)NC(=O)[C@H](CCCNC(=N)N)NC(=O)[C@@H](N)CCCCN)C(N)=O [HHC36, reference compound] (H-KRWWKWWRR-NH2; N-terminus assumed) | – | – | – | – | – | – | – | – | – | completely inactive
CC[C@H](C)[C@H](NC(=O)[C@H](CCCNC(=N)N)NC(=O)[C@@H](NC(=O)[C@H](CCCCN)NC(=O)[C@@H](NC(=O)[C@@H](NC(=O)[C@H](CC(C)C)NC(=O)[C@H](CCCNC(=N)N)NC(=O)[C@@H](N)CCCNC(=N)N)[C@@H](C)CC)C(C)C)C(C)C)C(=O)N[C@@H](Cc1c[nH]c2ccccc12)C(=O)N[C@@H](CCCNC(=N)N)C(=O)N[C@@H](CCCNC(=N)N)C(N)=O [Peptide 2007] (H-RRLIVKVRIWRR-NH2; N-terminus assumed) | 0.88 | 867 pg/mL | 386 | 7954 pg/mL | – | – | 5 µg/mL | 10 µg/mL | – | –
CC[C@H](C)[C@H](NC(=O)[C@H](CCCNC(=N)N)NC(=O)[C@@H](NC(=O)[C@H](CCCCN)NC(=O)[C@@H](NC(=O)[C@@H](NC(=O)[C@H](Cc1c[nH]c2ccccc12)NC(=O)[C@H](CCCNC(=N)N)NC(=O)[C@@H](N)C(C)C)[C@@H](C)CC)C(C)C)C(C)C)C(=O)N[C@@H](CCCNC(=N)N)C(=O)N[C@@H](CCCNC(=N)N)C(=O)N[C@@H](CCCNC(=N)N)C(N)=O [Peptide 2006] (H-VRWIVKVRIRRR-NH2; N-terminus assumed) | 0.33 | 322 pg/mL | 316 | 6714 pg/mL | 20 µg/mL | 10 µg/mL | – | – | – | –
CC[C@H](C)[C@H](NC(=O)[C@H](CCCNC(=N)N)NC(=O)[C@@H](NC(=O)[C@H](CCCCN)NC(=O)[C@@H](NC(=O)[C@@H](NC(=O)[C@H](CC(C)C)NC(=O)[C@H](CCCNC(=N)N)NC(=O)[C@@H](N)C(C)C)[C@@H](C)CC)C(C)C)C(C)C)C(=O)N[C@@H](CCCNC(=N)N)C(=O)N[C@@H](CCCNC(=N)N)C(=O)N[C@@H](CCCNC(=N)N)C(N)=O [Peptide 2003] (H-VRLIVKVRIRRR-NH2; N-terminus assumed) | 1.07 | 1051 pg/mL | 509 | 10848 pg/mL | 2.5 µg/mL | 20 µg/mL | – | – | – | –
CC[C@H](C)[C@H](NC(=O)[C@H](CCCNC(=N)N)NC(=O)[C@@H](NC(=O)[C@H](C)NC(=O)[C@@H](NC(=O)[C@@H](NC(=O)[C@H](CC(C)C)NC(=O)[C@H](CCCNC(=N)N)NC(=O)[C@@H](N)C(C)C)[C@@H](C)CC)C(C)C)C(C)C)C(=O)N[C@@H](CCCNC(=N)N)C(=O)N[C@@H](CCCNC(=N)N)C(=O)N[C@@H](CCCNC(=N)N)C(N)=O [Peptide 2002] (H-VRLIVAVRIRRR-NH2; N-terminus assumed) | 0.30 | 293 pg/mL | 152 | 3215 pg/mL | 2.5 µg/mL | 20 µg/mL | – | – | – | –
CC[C@H](C)[C@H](NC(=O)[C@H](CCCNC(=N)N)NC(=O)[C@@H](NC(=O)[C@H](CCCCN)NC(=O)[C@@H](NC(=O)[C@@H](NC(=O)[C@H](CC(C)C)NC(=O)[C@H](CCCNC(=N)N)NC(=O)[C@@H](N)C(C)C)[C@@H](C)CC)C(C)C)C(C)C)C(=O)N[C@@H](Cc1c[nH]c2ccccc12)C(=O)N[C@@H](CCCNC(=N)N)C(=O)N[C@@H](CCCNC(=N)N)C(N)=O [Peptide 2001] (H-VRLIVKVRIWRR-NH2; N-terminus assumed) | 0.08 | 76 pg/mL | 765 | 16300 pg/mL | 2.5 µg/mL | 10 µg/mL | – | – | – | –
CC[C@H](C)[C@H](NC(=O)[C@H](CCCNC(=N)N)NC(=O)[C@H](CC(C)C)NC(=O)[C@H](CCC(N)=O)NC(=O)[C@@H](N)Cc1c[nH]c2ccccc12)C(=O)N[C@@H](CCCNC(=N)N)C(=O)N[C@H](C(=O)N[C@@H](CCCCN)C(=O)N[C@H](C(=O)N[C@H](C(=O)N[C@@H](CCCNC(=N)N)C(=O)N[C@@H](CCCCN)C(N)=O)[C@@H](C)CC)C(C)C)C(C)C [Peptide 2012] (H-WQLRIRVKVIRK-NH2; N-terminus assumed) | 0.43 | – | 227 | 4824 pg/mL | – | – | 20 µg/mL | – | 381* pg/ml | –
